# Laboratory results: patent publication US20240092799A1, “MNK INHIBITORS” (Hepagene Therapeutics (HK) Limited, priority 2020, published 2024)
# Target: MNK2 (Homo sapiens (Human), UniProt Q9HBH9)
# Assay: MNK Biochemical Enzymatic Assay (ADP-Glo), MNK2 binding assay
# Procedure: MNK Biochemical Enzymatic Assay. This protocol establishes the binding assays for MNK1 and MNK2 using ADP-Glo assay. MNK phosphorylates the substrate and converts ATP to ADP, which was detected by Envision and used to reflect the reminding activity of MNK. Reagents and equipment used in the assay are listed below, followed by the protocol.
# • a) Add 50 μL compound to 384-well dilution plate • b) Dilute compound 1:3 in succession in DMSO for each column for 10+0 pts (refer to dilution plate map) • c) Transfer 0.1 μL diluted compound solution in each row to 384 assay plate using Echo, each column containing 2 replicates (refer to assay plate map) • d) Add 5 μL enzyme working solution to 384-well assay plate, centrifuge 1000 RPM for 1 min • e) Incubate at 25° C. for 15 min • f) Add 5 μL substrate working solution to initiate reaction • g) Incubate at 25° C. for 60 min • h) Add 10 μL ADP Glo reagent, centrifuge 1000 RPM for 1 min • i) Incubate at 25° C. for 60 min • j) Add 20 μL kinase detection reagent, centrifuge 1000 RPM for 1 min • k) Incubate at 25° C. for 60 min • l) Read on Envision for US LUM as RLU • m) Data analysis: IC50s were determined based on a non-linear regression analysis of data collected.
# Chain of MNK2 (Q9HBH9 whole entry): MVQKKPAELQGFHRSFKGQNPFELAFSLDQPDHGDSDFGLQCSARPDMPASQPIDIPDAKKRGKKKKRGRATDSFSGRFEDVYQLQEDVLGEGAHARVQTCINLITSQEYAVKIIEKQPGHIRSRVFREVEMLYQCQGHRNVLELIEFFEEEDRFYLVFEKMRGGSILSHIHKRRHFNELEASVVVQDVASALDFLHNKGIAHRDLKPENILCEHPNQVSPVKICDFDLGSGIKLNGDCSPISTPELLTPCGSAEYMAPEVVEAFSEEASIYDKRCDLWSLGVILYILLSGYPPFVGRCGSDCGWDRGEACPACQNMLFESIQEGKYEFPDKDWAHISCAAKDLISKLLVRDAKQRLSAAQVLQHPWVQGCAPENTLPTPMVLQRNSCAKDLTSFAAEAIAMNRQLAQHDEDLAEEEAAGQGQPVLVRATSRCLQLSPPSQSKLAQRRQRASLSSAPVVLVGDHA
row,SMILES,IC50 [nM]
1,"Cc1cc(-c2cc(-c3cc(N)ncn3)no2)c(=O)n2c1C(=O)NC21CCCCC1 [Compound XVIII, 6′-(3-(6-Aminopyrimidin-4-yl)isoxazol-5-yl)-8′-methyl-2′H-spiro[cyclohexane-1,3′-imidazo[1,5-a]pyridine]-1′,5′-dione]",> 1000
2,"O=C1NC2(CCCCC2)c2cc(Nc3ncnc4sc5c(c34)CCC(C(=O)N3CCC3)C5)sc21 (stereo not drawn) [Compound XXV-D, 2′-((7-(azetidine-1-carbonyl)-5,6,7,8-tetrahydrobenzo[4,5]thieno[2,3-d]pyrimidin-4-yl)amino)spiro[cyclohexane-1,4′-thieno[2,3-c]pyrrol]-6′(5′H)-one]",10 to 100
3,"O=C1NC2(CCCCC2)c2cc(Nc3cc(Nc4ccccc4)ncn3)sc21 [Compound XXIII-B, 2′-((6-(Phenylamino)pyrimidin-4-yl)amino)spiro[cyclohexane-1,4′-thieno[2,3-c]pyrrol]-6′(5′H)-one]",10 to 100
4,"Cc1cc(Nc2cc(NCCO)ncn2)[n+]([O-])c2c1C(=O)NC21CCCCC1 [Compound XXIX-I, 2′-((6-((2-hydroxyethyl)amino)pyrimidin-4-yl)amino)-4′-methyl-5′-oxo-5′,6′-dihydrospiro[cyclohexane-1,7′-pyrrolo[3,4-b]pyridine] 1′-oxide]",10 to 100
5,"Nc1cc(Nc2cc3c(s2)C(=O)NC32CCOCC2)ncn1 [Compound XXII, 2′-((6-Aminopyrimidin-4-yl)amino)-2,3,5,6-tetrahydrospiro[pyran-4,4′-thieno[2,3-c]pyrrol]-6′(5′H)-one]",10 to 100
6,"O=C1NC2(CCCCC2)c2cc(Nc3ncnc4sccc34)sc21 [Compound X-B, 2′-(thieno[2,3-d]pyrimidin-4-ylamino)spiro[cyclohexane-1,4′-thieno[2,3-c]pyrrol]-6′(5′H)-one]",100 to 1000
7,"CN(C)CCNc1cc(Nc2cc3c(s2)C(=O)NC32CCCCC2)ncn1 [Compound XXIII-A, 2′-((6-((2-(Dimethylamino)ethyl)amino)pyrimidin-4-yl)amino)spiro [cyclohexane-1,4′-thieno[2,3-c]pyrrol]-6′(5′H)-one]",100 to 1000
8,"Cc1cc(Nc2cc3c(s2)C(=O)NC32CCCCC2)ncn1 [Compound XXIII-I, 2′-((6-Methylpyrimidin-4-yl)amino)spiro[cyclohexane-1,4′-thieno[2,3-c]pyrrol]-6′(5′H)-one]",100 to 1000
9,"Cc1cc(Nc2cc(N[C@@H]3CCOC3)ncn2)[n+]([O-])c2c1C(=O)NC21CCCCC1 [Compound XXIX-AX, (R)-4′-methyl-5′-oxo-2′-((6-((tetrahydrofuran-3-yl)amino)pyrimidin-4-yl)amino)-5′,6′-dihydrospiro[cyclohexane-1,7′-pyrrolo[3,4-b]pyridine] 1′-oxide]",10 to 100
10,"CN1CCN(c2cc(Nc3cc4c(s3)C(=O)NC43CCCCC3)ncn2)CC1 [Compound XXIII-M, 2′-((6-(4-Methylpiperazin-1-yl)pyrimidin-4-yl)amino)spiro[cyclohexane-1,4′-thieno[2,3-c]pyrrol]-6′(5′H)-one]",> 1000
11,"Cc1cc(Nc2cc(N[C@H]3CCNC3)ncn2)[n+]([O-])c2c1C(=O)NC21CCCCC1 [Compound XXIX-S, (S)-4′-methyl-5′-oxo-2′-((6-(pyrrolidin-3-ylamino)pyrimidin-4-yl)amino)-5′,6′-dihydrospiro[cyclohexane-1,7′-pyrrolo[3,4-b]pyridine] 1′-oxide]",10 to 100
12,"O=C1NC2(CCCCC2)c2cc(Nc3cc(N4CCOCC4)ncn3)sc21 [Compound XXIII-K, 2′-((6-Morpholinopyrimidin-4-yl)amino)spiro[cyclohexane-1,4′-thieno[2,3-c]pyrrol]-6′(5′H)-one]",> 1000
13,"COCCCNc1cc(Nc2cc(C)c3c([n+]2[O-])C2(CCCCC2)NC3=O)ncn1 [Compound XXIX-C, 2′-((6-((3-methoxypropyl)amino)pyrimidin-4-yl)amino)-4′-methyl-5′-oxo-5′,6′-dihydrospiro[cyclohexane-1,7′-pyrrolo[3,4-b]pyridine] 1′-oxide]",10 to 100

# Other lines, results leading:
row,IC50 [nM],SMILES
1,10 to 100,"Cc1cc(Nc2cc(N[C@H]3CCC[C@@H]3O)ncn2)[n+]([O-])c2c1C(=O)NC21CCCCC1 [Compound XXIX-V, 2′-((6-(((1S,2S)-2-hydroxycyclopentyl)amino)pyrimidin-4-yl)amino)-4′-methyl-5′-oxo-5′,6′-dihydrospiro[cyclohexane-1,7′-pyrrolo[3,4-b]pyridine] 1′-oxide]"
2,10 to 100,"O=C1NC2(CCCCC2)c2nc(Nc3ccnc(Nc4ccccn4)c3)sc21 [Compound XXVIII-J, 2′-((2-(pyridin-2-ylamino)pyridin-4-yl)amino)spiro[cyclohexane-1,4′-pyrrolo[3,4-d]thiazol]-6′(5′H)-one]"
3,10 to 100,"Cc1cc(Nc2cc(NC(=O)N(C)C)ncn2)[n+]([O-])c2c1C(=O)NC21CCCCC1 [Compound XXIX-U, 2′-((6-(3,3-dimethylureido)pyrimidin-4-yl)amino)-4′-methyl-5′-oxo-5′,6′-dihydrospiro[cyclohexane-1,7′-pyrrolo[3,4-b]pyridine] 1′-oxide]"
4,10 to 100,"Cc1cc(Nc2cc(N[C@H]3CCCOC3)ncn2)[n+]([O-])c2c1C(=O)NC21CCCCC1 [Compound XXIX-E, (S)-4′-methyl-5′-oxo-2′-((6-((tetrahydro-2H-pyran-3-yl)amino)pyrimidin-4-yl)amino)-5′,6′-dihydrospiro[cyclohexane-1,7′-pyrrolo[3,4-b]pyridine] 1′-oxide]"
5,10 to 100,"O=C1NC2(CCCCC2)c2cc(Nc3ncnc4cccnc34)sc21 [Compound XXX, 2′-(pyrido[3,2-d]pyrimidin-4-ylamino)spiro[cyclohexane-1,4′-thieno[2,3-c]pyrrol]-6′(5′H)-one]"
6,10 to 100,"Nc1cc(Nc2cc3c(s2)C(=O)NC32CCCC2)ncn1 [Compound X-E, 2′-((6-aminopyrimidin-4-yl)amino)spiro[cyclopentane-1,4′-thieno[2,3-c]pyrrol]-6′(5′H)-one]"
7,10 to 100,"Cc1cc(Nc2cc(N[C@@H]3CCC[C@H]3O)ncn2)[n+]([O-])c2c1C(=O)NC21CCCCC1 [Compound XXIX-X, 2′-((6-(((1R,2R)-2-hydroxycyclopentyl)amino)pyrimidin-4-yl)amino)-4′-methyl-5′-oxo-5′,6′-dihydrospiro[cyclohexane-1,7′-pyrrolo[3,4-b]pyridine] 1′-oxide]"
8,10 to 100,"O=C1NC2(CCCCC2)c2cc(Nc3cc(Nc4ccncc4)ncn3)sc21 [Compound XXIII-O, 2′-((6-(pyridin-4-ylamino)pyrimidin-4-yl)amino)spiro[cyclohexane-1,4′-thieno[2,3-c]pyrrol]-6′(5′H)-one]"
9,10 to 100,"Cc1cc(Nc2cc(NC(=O)N3CCCC3)ncn2)[n+]([O-])c2c1C(=O)NC21CCCCC1 [Compound XXIX-AQ, 4′-methyl-5′-oxo-2′-((6-(pyrrolidine-1-carboxamido)pyrimidin-4-yl)amino)-5′,6′-dihydrospiro[cyclohexane-1,7′-pyrrolo[3,4-b]pyridine] 1′-oxide]"
10,10 to 100,"O=C(Nc1cc(Nc2cc3c(s2)C(=O)NC32CCCCC2)ncn1)c1ccccc1 [Compound XX-E, N-(6-((6′-oxo-5′,6′-dihydrospiro[cyclohexane-1,4′-thieno[2,3-c]pyrrol]-2′-yl)amino)pyrimidin-4-yl)benzamide]"
11,10 to 100,"O=C1NC2(CCCCC2)c2cc(Nc3ncnc4sc5c(c34)CCCC5)sc21 [Compound XXIII-F, 2′-((5,6,7,8-Tetrahydrobenzo[4,5]thieno[2,3-d]pyrimidin-4-yl)amino)spiro [cyclohexane-1,4′-thieno[2,3-c]pyrrol]-6′(5′H)-one]"
12,10 to 100,"O=C1NC2(CCCCC2)c2cc(Nc3cc(NCC4CCCO4)ncn3)sc21 (stereo not drawn) [Compound XXIII-Q, 2′-((6-(((tetrahydrofuran-2-yl)methyl)amino)pyrimidin-4-yl)amino)spiro[cyclohexane-1,4′-thieno[2,3-c]pyrrol]-6′(5′H)-one]"
13,100 to 1000,"Cc1cc(Nc2cc(N[C@@H]3CCC[C@@H]3O)ncn2)[n+]([O-])c2c1C(=O)NC21CCCCC1 [Compound XXIX-W, 2′-((6-(((1R,2S)-2-hydroxycyclopentyl)amino)pyrimidin-4-yl)amino)-4′-methyl-5′-oxo-5′,6′-dihydrospiro[cyclohexane-1,7′-pyrrolo[3,4-b]pyridine] 1′-oxide]"
14,10 to 100,"Cc1cc(Nc2ncnc3c2CCN3)[n+]([O-])c2c1C(=O)NC21CCCCC1 [Compound XXIX-AB, 2′-((6,7-dihydro-5H-pyrrolo[2,3-d]pyrimidin-4-yl)amino)-4′-methyl-5′-oxo-5′,6′-dihydrospiro[cyclohexane-1,7′-pyrrolo[3,4-b]pyridine] 1′-oxide]"
15,10 to 100,"COCCNc1cc(Nc2cc(C)c3c([n+]2[O-])C2(CCCCC2)NC3=O)ncn1 [Compound XXIX-B, 2′-((6-((2-methoxyethyl)amino)pyrimidin-4-yl)amino)-4′-methyl-5′-oxo-5′,6′-dihydrospiro[cyclohexane-1,7′-pyrrolo[3,4-b]pyridine] 1′-oxide]"
16,10 to 100,"Cc1cc(Nc2ncnc3[nH]ncc23)[n+]([O-])c2c1C(=O)NC21CCCCC1 [Compound XXIX-AAH, 2′-((1H-pyrazolo[3,4-d]pyrimidin-4-yl)amino)-4′-methyl-5′-oxo-5′,6′-dihydrospiro[cyclohexane-1,7′-pyrrolo[3,4-b]pyridine] 1′-oxide]"
17,> 1000,"Nc1cc(Nc2cc3n(n2)C2(CCCCC2)NC3=O)ncn1 [Compound XI, 2′-((6-Aminopyrimidin-4-yl)amino)spiro[cyclohexane-1,6′-imidazo[1,5-b]pyrazol]-4′(5′H)-one]"
